Legend:
EAE mice = assay: Experimental autoimmune encephalomyelitis (EAE), animal model of MS; assay type: in vivo, mouse; conditions: injected intraperitoneally twice a week at 10 mg/Kg
Protocol: Active EAE in wild-type C57Bl/6 mice was induced as described. Briefly, the mice were challenged in the […] with an emulsion containing 50 μg of MOG p35-55 peptide ( ) supplemented with 8 mg/ml heat-inactivated Mycobacterium tuberculosis (H37Ra strain; Difco Laboratories) in CFA (Difco Laboratories) on day 0 in the tail base. Booster immunization with an identical emulsion was given on both sides. Bordetella pertussis toxin (PT) (List Biologicals) were administered i.p. (200 ng/mouse) 48 h after the immunization. For induction of EAE in MOGi-cre/Atx^n/n mice, the doses for MOG35-55 peptide and PT were the same as for wild type mice Atx^n/n. From mice injected at 8 to 12 weeks of age, representative animals were fixed for immunohistochemistry (4% paraformaldehyde in phosphate-buffered saline) and then 7-μm thick frozen sections were used for immunohistochemistry, or fixed in 10% buffered formalin overnight at 4° C. for histopathology. […]
Mice were observed daily for clinical signs of EAE. The severity of EAE was evaluated and scored as follows: 0, no clinical disease; 1, tail paralysis; 2, hindlimb weakness and abnormal gait (incomplete paralysis of one or two hindlimbs); 3, paraplegia (complete paralysis of one or two hindlimbs); 4, quadriplegia; 5, moribund or dead animals.

CIA in DBA/1 mice = assay: Experimental arthritis (collagen induced arthritis, CIA) in mice; assay type: in vivo, mouse; conditions: injected intraperitoneally twice a week
WT mice (C57/BL6) = assay: BLM-induced pulmonary fibrosis in mice; assay type: in vivo, mouse
Text: 8-12 week old littermate mice were divided into an experimental group that received intratracheal Bleomycin (BLM, 0.08 U) and a control group that received Normal Saline instead. Mice were sacrificed at 7 and 14 days post BLM instillation for pathology evaluation.
Age and sex-matched 6-8 week old WT (C57/Bl6) mice were divided in four study groups according to the treatment regime.
Group A (n=5) received i.p injections of Veh (water) twice per week for two weeks starting at day −1 and instilled with Saline intratracheally at day 0.
Group B (n=3) received i.p injections of BRP-LPA (10 mg/Kg) twice per week for two weeks starting at day −1 and instilled with Saline intratracheally at day 0.
Group C (n=9) received i.p injections of Veh twice per week for two weeks starting at day −1 and instilled with BLM (0.08 U) intratracheally at day 0.
Group D (n=8) received i.p injections of BRP-LPA (10 mg/Kg) twice per week for two weeks starting at day −1 and instilled with BLM (0.08 U) intratracheally at day 0. A schematic representation of the time course of the protocol is depicted below.
All mice were sacrificed at day 14 after BLM instillation for disease evaluation. […] Lungs were lavaged 3 times with 1 ml aliquots of saline (BAL) followed by perfusion through the right ventricle of the heart with 10 ml of PBS. BAL fluid was centrifuged and cell pellets were used for total cell counts with Trypan Blue while the supernatant was snap frozen.
Right lung was instilled with 1 ml of buffered formalin, dissected and fixed O/N in formalin. Left lung was snap frozen and used for soluble collagen measurements using the Sircol assay.
Schematic representation of BRP-LPA administration protocol. BRP-LPA (or water) was administered intraperioneally in mice starting one day before BLM (or Sal) instillation and every three other days until the end of the study (14 days). Pulmonary fibrosis was induced with a single i.t. instillation of BLM at day 0.
Soluble collagen measurements were performed using the Sircol reagent according to manufacture's recommendations.

ATX [1] = molecular target: T1, ATX (Mus musculus, UniProt Q9R1E6); assay: ATX activity assay (FS-3 cleavage) in BAL fluids, LPS model; assay type: in vivo; conditions: intratracheal prior to LPS; 24 hr
T1 construct: from tissue; host or cells: BAL fluid of WT mice exposed to aerosolised LPS
Protocol: Autotaxin activity in BALF of mice was determined using the cleavage of the ATX-specific fluorogenic substrate FS-3 (Echelon Biosciences, UT, USA). Assays were conducted in a final volume of 100 μl comprising 20 μl 5× assay buffer (700 mM NaCl, 25 mM KCl, 5 mM MgCl2 and 250 mM Tris, pH 8.0), 20 μl of FS-3 (final concentration 2.5 μM) and 60 μl of BALF (diluted 1:2 in 1×PBS). Reactions were incubated at 37° C. in a Tecan Infinite 200 microplate reader (Tecan Trading AG, Switzerland) set to make fluorescence measurements every 5 min for 1 hour. Autotaxin activity was quantitated by measuring the rate of increase in fluorescence at 528 nm with excitation at 485 nm.

ATX [2] = assay: ATX ELISA in plasma and BAL fluids of control and BLM treated mice; assay type: in vivo, mouse; conditions: saline treated, naive mice; same trend in BLM-treated mice
Protocol: To detect ATX in biological fluids, a direct ELISA assay was developed using the commercially available anti-phospholipase D polyclonal antibody (Cat. No. 10005375, Cayman chemical, USA). The bottom of a NUNC-IMMUNO 96 MicroWell Elisa plate was coated overnight with 100 μl of 1:200 diluted serum in 0.05 M carbonate/bicarbonate coating buffer, pH 9.5 (Cat. No. S7795/S7277, Sigma, Saint Louis, […]., USA), washed three times with 0.05% Tween-20 (Cat. No. P1379, Sigma, USA) in TBS and blocked with 0.1% Bovine Serum Albumin (Cat. No. A7888, Sigma, USA) in 0.05% TBST for 1 h at RT. For each ELISA assay, 100 μl of two-fold serial dilutions of recombinant ATX protein ranging from 0.1 to 1.6 μg/ml were plated as standard curve and treated as all samples.
The plate was then incubated with 0.5 μg/ml detection antibody for 1 h and washed three times with 0.05% TBST. Autotaxin antigen was then detected with an anti-rabbit HRP-labeled secondary antibody (Cat. No. 4010-05, SouthernBiotech, USA) that was developed with TMB substrate (Cat. No. […], Sigma, USA). Readings were obtained at 450 nm. All samples and standards were assayed in triplicates.

ATX [3] = molecular target: T1, ATX; assay: ATX activity assay (FS-3 cleavage) in plasma of saline- and BLM-treated mice; assay type: in vivo; conditions: both in saline- and BLM-treated mice
Protocol: […] […] Reactions were incubated at 37° C. in a Tecan Infinite 200 microplate reader (Tecan Trading AG, Switzerland) set to make fluorescence measurements every 5 min for 1 hour. Autotaxin activity was quantitated by measuring the rate of increase in fluorescence at 528 nm with excitation at 485 nm.

WT mice = assay: LPS-induced lung inflammation (aerosolised LPS) in mice; assay type: in vivo, mouse
Protocol: 6-8 week old littermate mice were divided into an experimental group that received aerosolised LPS (from Pseudomonas aeruginosa, 10 mg dissolved in 3 ml Normal Saline) and a control group that received Normal Saline instead. […] The LPS solution was administered by a custom-made nebuliser flowing at 4 l/min oxygen for 20-25 min into an airtight chamber containing 5-7 mice. All analyses were performed 24 h later.
Upon euthanasia, blood was drawn from the vena cava and was added to 50 mM EDTA for plasma preparations. Lungs were lavaged with an aliquot of 1 ml normal saline followed by 2 ml of saline (Bronchoalveolar Lavage Fluid. BALF). BALF aliquots were centrifuged; the cell pellets were combined and used for total cell counts with Trypan Blue while supernatants were snap-frozen. Lungs were then perfused with 10 ml of PBS through the spontaneous beating right ventricle and the left lung was snap-frozen for future analysis while the right lung was fixed in 10% neutral buffered formalin. Tissues were embedded in paraffin, and 5-μm-thick sections were cut at the median transverse level of the lungs. Sections were mounted on glass slides and stained with H&E.
Total protein concentration in BALFs was measured using the Bradford protein assay (Biorad, Hercules, Calif.) according to manufacturer's recommendations. OD readings of samples were converted to μg/ml using values obtained from a standard curve generated with serial dilutions of bovine serum albumin (50-500 μg/ml).

CCCCCCCCCCCCCCCC(=O)OC[C@@H](O)CC(Br)P(=O)(O)O (stereo partly drawn) [BrP-LPA, 1-Bromo-3(S)-hydroxy-4-(palmitoyloxy)butyl-phosphonate]
disease development (clinical score) (EAE mice): attenuated disease development | disease development (clinical and histopathological analysis) (CIA in DBA/1 mice): attenuated disease development | fibrosis development (histopathology, H/E lung sections) (WT mice (C57/BL6); 10 mg/Kg i.p. biweekly, 14 days after BLM, vs vehicle): development of focal areas of fibrosis with a patchy distribution in lung parenchyma | soluble collagen accumulation (WT mice (C57/BL6); 10 mg/Kg i.p., 14 days after BLM, vs Veh-treated mice): significant reduction of collagen accumulation | BAL total cell counts (WT mice (C57/BL6); 14 days post BLM administration, Brp- vs Veh-treated): did not differ | total protein content in BAL fluids (WT mice (C57/BL6); vehicle- vs BrP-treated mice after BLM): did not differ | ATX enzymatic activity in BAL fluids (ATX [1]): failed to detect lower levels of enzymatic activity | levels of ATX in plasma and in BAL fluids (ATX [2]): non statistical increase | ATX activity in plasma (ATX [3]): reduced ATX activity | BAL fluid total cell counts (recruitment of neutrophils in the lungs) (WT mice; BrP-LPA 100 μg/mouse intratracheally prior to aerosolized LPS (10 mg)): 1.9×10^6±0.16 | BAL protein content (WT mice; LPS-exposed mice, vs vehicle-treated mice): significantly elevated | LPS-induced lung inflammation and alveolar edema (histopathology, BALF total cell counts) (WT mice; intratracheal prior to LPS exposure, 24 hr): significant increases | total protein concentration in BAL fluids (WT mice; saline treated mice): increased total protein concentration

From US20130202614A1, “AUTOTAXIN PATHWAY MODULATION AND USES THEREOF” (B.S.R.C. "ALEXANDER FLEMING", priority 2010, published 2013)
